Results published in US9486443B2, “Pharmaceutical composition for preventing or treating hypertriglyceridemia or hypertriglyceridemia-associated diseases” (priority 2011, dated 2016).

What was measured:
[1] = test system: hypertriglyceridemia and hypercholesterolemia-induced animals; assay: Evaluation of triglyceride-inhibitory activities in hypertriglyceridemia and hypercholesterolemia-induced animals; type: in vivo, New Zealand White rabbits; details: oral, Formula 1 20 mg/kg/day, amlodipine 5 mg/kg/day; for average triglyceride concentration, 4 weeks: male rabbits on 0.5% cholesterol, 14% coconut oil diet, once per day for 4 weeks, fasted 12 to 16 hours
Description: Male New Zealand White rabbits were used as a test animal. All animals, except for the G1 group animals (negative control group), were fed with an irradiation-sterilized hypertriglyceridemia and hypercholesterolemia diet, i.e., DYET #621082 (Purina #5321 chow with 0.5% cholesterol, 14% coconut oil & 2% Maltose Dextrin, Dyets, Inc., Bethlehem, Pa. 18017), which was purchased from Saeronbio Inc. In order to induce hypertriglyceridemia and hypercholesterolemia, the animals were supplied with the diet for more than 4 weeks. After collecting the blood samples from the animals, serum biochemical analyses were performed thereon. Animals showing significant changes in total cholesterol levels and triglyceride levels were selected, in comparison with the non-treated control group. The selected animals were divided into 4 groups on the basis of the total cholesterol levels and triglyceride levels, thereby all the groups having substantially equal average values in the total cholesterol levels and triglyceride levels. The test materials were dissolved in saline containing 0.5% carboxymethyl-cellulose sodium and 1% Tween 80 and then administered directly into the stomach using an oral syringe adapted with a latex catheter, once per day for 4 weeks. The test groups are as in the following Table 3.
The blood samples were collected through the jugular vein, from the animals at the day initiating the administration of the test material(s) (i.e., at the time of group-dividing, 0 week), and from the animals (which were fasted for 12 to 16 hours before collecting the blood) at 4 weeks after initiating the administration of the test material(s) (n=4-7).
The triglyceride concentrations in the hypertriglyceridemia and hypercholesterolemia-induced animals as in the above are presented in the following Table 4. The values in Table 4 represent average triglyceride concentrations (mg/dL) of the respective group.

[2] = test system: hypercholesterolemia-induced animals; assay: Evaluation of triglyceride-inhibitory activities in hypercholesterolemia-induced animals; type: in vivo, New Zealand White rabbits; details: male rabbits on 1% cholesterol diet
Description: Male New Zealand White rabbits were used as a test animal. All animals, except for the G1 group animals (negative control group, n=4), were fed with an irradiation-sterilized hypercholesterolemia diet, i.e., DYET #620007 (Purina #5321 chow with 1% cholesterol, Dyets, Inc., Bethlehem, Pa. 18017), which was purchased from Central Lab. Animal Inc. In order to induce hypercholesterolemia, the animals were supplied with the diet for more than 8 weeks. After collecting the blood samples from the animals, serum biochemical analyses were performed thereon. Animals having total cholesterol levels of approximately 870 mg/dL were selected as a hypercholesterolemia-induced animal. The test materials were dissolved in saline containing 0.5% carboxymethylcellulose sodium and 1% Tween 80 and then administered directly into the stomach using an oral syringe adapted with a latex catheter, once per day for 4 weeks. The test groups are as in the following Table 1. […] The values in Table 2 represent average triglyceride concentrations (mg/dL) of the respective group.

Row | Compound | inhibition at 20 mg/kg ([1]; Oryctolagus cuniculus, 672 h, 4 weeks, in comparison with the G2 group, once per day, read-out: Percent inhibition of triglyceride in the blood) [%] | average triglyceride concentration, 4 weeks [1] [mg/dL] | average triglyceride concentration, 0 week ([2]; baseline sample (0 week), before administration, group average) [mg/dL] | average triglyceride concentration, 2 weeks ([2]; oral, once per day, 2 weeks after initiating administration, fasted 12 to 16 hours, Formula 1 20 mg/kg/day, amlodipine 5, fenofibrate 30) [mg/dL] | average triglyceride concentration, 4 weeks ([2]; oral, once per day, 4 weeks after initiating administration, fasted 12 to 16 hours, Formula 1 20 mg/kg/day, amlodipine 5, fenofibrate 30) [mg/dL] | Percent inhibition of triglyceride in the blood ([1]; 4 weeks, in comparison with the G2 group, once per day) [%]
1 | COc1cc(F)c(C(C)C)cc1-c1ccc(C(F)(F)F)cc1CN1C(=O)O[C@H](c2cc(C(F)(F)F)cc(C(F)(F)F)c2)[C@@H]1C [Compound of Formula 1, (4S,5R)-5-[3,5-bis(trifluoromethyl)phenyl]-3-({2-[4-fluoro-2-methoxy-5-(propan-2-yl)phenyl]-5-(trifluoromethyl)phenyl}methyl)-4-methyl-1,3-oxazolidin-2-one] | 10.2 | 293.1 | 167.4 | 255.8 | 356.7 | –
2 | CCOC(=O)C1=C(COCCN)NC(C)=C(C(=O)OC)C1c1ccccc1Cl (stereo not shown) [Amlodipine, reference compound] | – | 268.0 | – | – | – | 17.9
